Assay results reported in US20260365699A1, “Compound Production Method” (The University of Tokyo, priority 2022, published 2026).
Blank lines part the entries; values can stand above or below the compound they belong to. *1 amine or outer side, *2 acyl side, *3 side chain or, on linkers, in order; H or OH if unused. Where a SMILES comes first, the peptide text is derived from it. Bridges are numbered along the chain shown (N, C = ends). [ ]: non-standard residue; d: D form. The star is where a group is joined. X2 = C=C(N[*:2])c1nc(-c2nc(-c3nc(C(=O)NCCC(=O)NCCOCCOCCCCCCCl)cs3)ccc2C(=O)[*:1])cs1; X1 = C=C(N[*:2])c1nc(-c2nc(-c3nc(C(=O)OC)cs3)ccc2C(=O)[*:1])cs1; Nle = CCCC[C@H](N)C(=O)O; Dhb = C/C=C(\N)C(=O)O; Dha = C=C(N)C(=O)O; Cam = NC(=O)C*

Assays:
HEK293H cells = assay: Chloroalkane penetration assay (CAPA) in HEK293H cells; type: cell-based, human; conditions: chloroalkane-labeled derivatives
Protocol: (§1) The sub-confluent HCT116 cells were treated with the indicated compounds for 24 hours and the cellular levels of TNIK, TNIK pSer764 (autophosphorylation product), c-Myc, and Axin2 were analyzed by an immunoblotting method (FIG. 7(b)) and RT-qPCR (FIG. 7(c)).
Next, it was confirmed whether or not the obtained compound could also access an intracellular target protein (TNIK is localized in the cytoplasm and the cell nucleus) in a human cell model. First, a chloroalkane penetration assay (CAPA) was performed on 4 types (TP1-ct, TP8-ct, TP14-ct, and TP15-ct) out of the 6 types of chloroalkane-labeled thiopeptide derivatives shown in FIG. 5 in order to measure an uptake degree into the cytoplasm (Peraro, L.; Deprey, K. L.; Moser, M. K.; Zou, Z.; Ball, H. L.; Levine, B.; and Kritzer, J. A. Cell Penetration Profiling Using the Chloroalkane Penetration Assay. J. Am. Chem. Soc. 2018, 140, 11360-11369).

TNIK [1] = assay: TNIK protein level in HCT116 cells (immunoblotting); type: cell-based, human
Protocol: as §1

TNIK pSer764 = assay: Immunoblotting of TNIK pSer764 (TNIK autophosphorylation) in HCT116 cells; type: cell-based, human; conditions: 20 μM of TP15, 24 hours, immunoblotting
Protocol: as §1
Nat. Commun. 2016, 7, 12586).

TNIK mRNA = TNIK mRNA level in HCT116 cells (RT-qPCR); type: cell-based, human
Protocol: as §1

[2] = Stability / reactivity towards glutathione (GSH), LC/MS; type: physicochemical; conditions: for reactivity with GSH, in words: increasing concentration of glutathione (GSH)
TNIK [3] = biological target: TNIK (Homo sapiens, UniProt Q9UKE5); assay: Surface plasmon resonance (SPR) binding affinity to TNIK; conditions: saturated concentration of ATP (1 mM; 15-fold higher than KM)
Text: Surface plasmon resonance (SPR) was used to evaluate the binding affinity of the thiopeptide synthesized in Example 2 to TNIK.

[4] = Metabolic stability in human serum (LC/MS); type: in vitro ADME; conditions: 37 °C
Protocol: The compounds were incubated with a human serum at 37 °C, and the amount of the residual test substance at various points in time was quantified by LC/MS with respect to an internal standard substance. […] Next, it was examined whether or not the half-lives of the compounds were affected by the reactivity of the Dha residue. The Dha residue may be conjugated with various serum thiols.
In addition, the metabolic stability of all of the 14 types of candidate thiopeptides was examined. The compound was incubated with the human serum at 37 °C, and the amount of the residual thiopeptide at various points in time was quantified by LC/MS with respect to the internal standard substance. The half-life of the thiopeptide for TLR10 was generally as long as 38.2 hours, and the thiopeptide was stable.

HEK293T cells = assay: Chloroalkane penetration assay (CAPA) in HEK293T cells; type: cell-based, human; conditions: compared with Tat
Text: (§2) FIG. 11(a) illustrates TL12 which is a lactazole-like binder of TLR10, retrosynthesis thereof, and amino acid building blocks used. FIG. 11(b) illustrates a binding affinity (KD value) to IRAK4 and an inhibition (IC50) by the synthesized thiopeptide. The half-life (τ1/2) in the human serum and the inhibition (IC50) of the NF-kB signaling pathway in THP-1 cells are also shown. These values were obtained by non-linear regression of the experimental data.: The shaded C in IR4 is hGln (which is a product of IAA alkylation of Cys, but is replaced by homoglutamine); the shaded M in IR15 is Nle (in which Met is replaced by Nle); and the shaded T in IR15 represents a Dhb residue. […] FIG. 11(c) illustrates the binding affinity (KD value) to TLR10 and the half-life (τ1/2) in the human serum.: The shaded C in TL1, TL8, and TL16 is hGln (a product of IAA alkylation of Cys, but is replaced by homoglutamine); the shaded M in TL8, TL11, TL12, TL13, and TL18 is Nle (in which Met is replaced by Nle); the shaded S in 8S of TL11 and TL12 represents a Dha residue; and the shaded S in 9S of TL12 represents an oxazole. […] FIG. 11(d) illustrates the results of a CAPA assay of IR1, IR15, and TP8. The assay was carried out in HEK293T cells.
(§3) Finally, the cell activity of the thiopeptide against IRAK4, which is an intracellular target protein localized in the cytoplasm and the cell nucleus, was examined. […]

[5] = test system: NF-kB signaling pathway in THP-1 cells; assay: Inhibition of NFkB reporter gene activity in THP1-XBlue stable cell line; type: cell-based, human
Text: as §2, §3

TNIK (Homo sapiens, UniProt Q9UKE5), sequence (Q9UKE5 whole entry): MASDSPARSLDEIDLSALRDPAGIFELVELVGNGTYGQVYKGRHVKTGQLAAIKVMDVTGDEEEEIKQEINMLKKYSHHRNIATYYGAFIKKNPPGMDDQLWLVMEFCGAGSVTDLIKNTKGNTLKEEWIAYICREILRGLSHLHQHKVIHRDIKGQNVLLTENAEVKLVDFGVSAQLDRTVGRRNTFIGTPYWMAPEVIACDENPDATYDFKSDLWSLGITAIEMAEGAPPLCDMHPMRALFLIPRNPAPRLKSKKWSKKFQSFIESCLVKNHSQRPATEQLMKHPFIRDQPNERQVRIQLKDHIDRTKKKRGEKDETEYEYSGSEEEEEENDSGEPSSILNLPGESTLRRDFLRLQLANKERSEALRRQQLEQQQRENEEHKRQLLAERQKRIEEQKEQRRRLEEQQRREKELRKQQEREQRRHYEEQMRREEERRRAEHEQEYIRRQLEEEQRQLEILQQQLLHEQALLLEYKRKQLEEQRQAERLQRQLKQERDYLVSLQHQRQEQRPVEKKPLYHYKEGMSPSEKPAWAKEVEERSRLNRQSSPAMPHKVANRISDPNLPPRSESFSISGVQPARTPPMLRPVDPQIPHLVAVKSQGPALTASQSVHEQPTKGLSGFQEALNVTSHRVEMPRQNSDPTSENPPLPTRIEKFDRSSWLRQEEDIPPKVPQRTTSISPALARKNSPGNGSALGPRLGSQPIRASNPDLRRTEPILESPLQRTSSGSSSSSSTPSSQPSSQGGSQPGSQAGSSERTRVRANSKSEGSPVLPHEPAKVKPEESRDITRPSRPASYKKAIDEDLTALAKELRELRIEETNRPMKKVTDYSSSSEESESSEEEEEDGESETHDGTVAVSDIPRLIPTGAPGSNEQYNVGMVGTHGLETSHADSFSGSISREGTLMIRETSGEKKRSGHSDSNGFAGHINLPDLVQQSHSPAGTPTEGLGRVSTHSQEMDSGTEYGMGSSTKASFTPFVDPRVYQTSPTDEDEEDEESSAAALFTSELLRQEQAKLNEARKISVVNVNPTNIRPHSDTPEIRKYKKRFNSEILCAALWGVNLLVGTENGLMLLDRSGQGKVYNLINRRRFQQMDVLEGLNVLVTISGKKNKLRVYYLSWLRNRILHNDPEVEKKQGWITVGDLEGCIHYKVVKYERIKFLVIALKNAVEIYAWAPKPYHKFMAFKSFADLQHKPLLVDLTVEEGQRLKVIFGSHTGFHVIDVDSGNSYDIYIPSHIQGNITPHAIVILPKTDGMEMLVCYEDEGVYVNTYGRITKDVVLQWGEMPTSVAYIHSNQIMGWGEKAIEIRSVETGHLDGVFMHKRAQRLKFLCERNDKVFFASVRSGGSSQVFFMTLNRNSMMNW

Structure (SMILES): C=C1NC(=O)CNC(=O)[C@H](CCCNC(=N)N)NC(=O)[C@H](Cc2ccc(O)cc2)NC(=O)[C@H](CC(C)C)NC(=O)[C@H](CO)NC(=O)[C@H](CCCCN)NC(=O)[C@H](CC(N)=O)NC(=O)CNC(=O)[C@H](Cc2ccccc2)NC(=O)[C@H](Cc2c[nH]c3ccccc23)NC(=O)[C@H](Cc2c[nH]c3ccccc23)NC(=O)c2ccc(-c3nc(C(=O)NCCC(=O)NCCOCCOCCCCCCCl)cs3)nc2-c2csc1n2 [TP14-ct] (WWFGNKSLYRG; linker N-C via X2)
- cytoplasmic uptake (CAPA), in words (HEK293H cells): taken up into HEK293H cells at a concentration of a single-digit μM

Structure (SMILES): OC1CCC(Oc2cccc3cnc(Nc4ccc5nc[nH]c5c4)nc23)CC1 (centres unmarked) [NCB0846, reference compound]
- overall expression of TNIK, protein level (TNIK [1]): down-regulated
- level of TNIK pSer764 (TNIK pSer764): the same
- overall expression of TNIK, mRNA level (TNIK mRNA): down-regulated

Structure (SMILES): C=C1NC(=O)C(=C)NC(=O)[C@H](CCCCN)NC(=O)[C@H](CC(C)C)NC(=O)[C@H]([C@@H](C)O)NC(=O)[C@H](CCCCN)NC(=O)[C@H](Cc2ccc(O)cc2)NC(=O)[C@H]([C@@H](C)CC)NC(=O)[C@H](Cc2ccccc2)NC(=O)CNC(=O)[C@H](Cc2c[nH]c3ccccc23)NC(=O)c2ccc(-c3nc(C(=O)NCCC(=O)NCCOCCOCCCCCCCl)cs3)nc2-c2csc(n2)C(=C)NC(=O)CNC1=O [TP1-ct] (WGFIYKTLK[Dha][Dha]G; linker N-C via X2)
- cytoplasmic uptake (CAPA), in words (HEK293H cells): taken up into HEK293H cells at a concentration of a single-digit μM

Structure (SMILES): C=C1NC(=O)c2csc(n2)[C@H]([C@@H](C)O)NC(=O)[C@H](C)NC(=O)[C@H]([C@@H](C)CC)NC(=O)[C@H](CCCNC(=N)N)NC(=O)CNC(=O)[C@H](CCCNC(=N)N)NC(=O)[C@H]([C@@H](C)O)NC(=O)[C@H](CCCNC(=N)N)NC(=O)[C@H]([C@@H](C)CC)NC(=O)[C@H]([C@@H](C)O)NC(=O)[C@H](Cc2c[nH]c3ccccc23)NC(=O)c2ccc(-c3nc(C(=O)NCCC(=O)NCCOCCOCCCCCCCl)cs3)nc2-c2csc1n2 [TP15-ct]
- cytoplasmic uptake (CAPA), in words (HEK293H cells): taken up into HEK293H cells at a concentration of a single-digit μM

- cytoplasmic uptake (CAPA), in words (HEK293H cells): efficient cytoplasmic translocation
- residual amount in the presence of GSH ([2]; 10 mM GSH, after 24 hours): > 95%
- reactivity with GSH, in words [2]: stable
- stability in human serum, in words [4]: short half-life
Structure (SMILES): C=C1NC(=O)CNC(=O)[C@H](CCCNC(=N)N)NC(=O)[C@H](Cc2ccc(O)cc2)NC(=O)[C@H](CC(C)C)NC(=O)[C@H](CO)NC(=O)[C@H](CCCCN)NC(=O)[C@H](CC(N)=O)NC(=O)CNC(=O)[C@H](Cc2ccccc2)NC(=O)[C@H](Cc2c[nH]c3ccccc23)NC(=O)[C@H](Cc2c[nH]c3ccccc23)NC(=O)c2ccc(-c3nc(C(=O)OC)cs3)nc2-c2csc1n2 [TP14] (WWFGNKSLYRG; linker N-C via X1)
- binding to TNIK in the presence of ATP (TNIK [3]): bonded to TNIK in the presence of the saturated concentration of ATP

- uptake into HEK293T cells relative to Tat (HEK293T cells; in the presence of serum): 2 fold
Structure (SMILES): C=C1NC(=O)/C(=C/C)NC(=O)[C@H](Cc2c[nH]c3ccccc23)NC(=O)[C@H](Cc2c[nH]cn2)NC(=O)[C@H](Cc2c[nH]c3ccccc23)NC(=O)[C@H]([C@@H](C)O)NC(=O)[C@H]([C@@H](C)CC)NC(=O)[C@H](Cc2ccccc2)NC(=O)[C@H](CCC(N)=O)NC(=O)[C@H](CCCNC(=N)N)NC(=O)[C@H](CCCCN)NC(=O)[C@H](CCCC)NC(=O)[C@H](CO)NC(=O)[C@H](Cc2c[nH]c3ccccc23)NC(=O)c2ccc(-c3nc(C(=O)OC)cs3)nc2-c2csc1n2 [IR15] (WS[Nle]KRQFITWHW[Dhb]; linker N-C via X1)
- uptake into cytoplasm of HEK293T cells, in words (HEK293T cells): taken up into the cytoplasm of HEK293T cells much more efficiently than Tat

Structure (SMILES): C=C1NC(=O)[C@H](CCCCN)NC(=O)[C@H](Cc2ccc(O)cc2)NC(=O)[C@H]([C@@H](C)CC)NC(=O)[C@H](CCCNC(=N)N)NC(=O)[C@H](CCCNC(=N)N)NC(=O)[C@H](CCCCN)NC(=O)[C@H](Cc2ccccc2)NC(=O)[C@H](CC(C)C)NC(=O)[C@H](CCSC)NC(=O)[C@H](CO)NC(=O)[C@H](Cc2c[nH]c3ccccc23)NC(=O)c2ccc(-c3nc(C(=O)NCCC(=O)NCCOCCOCCCCCCCl)cs3)nc2-c2csc1n2 [IR1-ct] (WSMLFKRRIYK; linker N-C via X2)
- inhibition of NFkB reporter gene activity, in words [5]: significant inhibition

- half-life (τ1/2) in human serum [4]: 88 h
- stability in human serum, in words [4]: good stability
Structure (SMILES): C=C1NC(=O)[C@H](CO)NC(=O)[C@H](CSCC(N)=O)NC(=O)CNC(=O)[C@H](Cc2ccc(O)cc2)NC(=O)[C@H](C)NC(=O)[C@H](CO)NC(=O)[C@H](CC(=O)O)NC(=O)CNC(=O)[C@H](CC(C)C)NC(=O)[C@H](Cc2c[nH]c3ccccc23)NC(=O)[C@H](Cc2c[nH]c3ccccc23)NC(=O)c2ccc(-c3nc(C(=O)OC)cs3)nc2-c2csc1n2 [TP4] (WWLGDSAYGC(Cam)S; linker N-C via X1)

- cytoplasmic uptake (CAPA), in words (HEK293H cells): efficient cytoplasmic translocation
- reactivity with GSH, in words [2]: Dha11 and Dha12 in TP1 react with GSH
Structure (SMILES): C=C1NC(=O)C(=C)NC(=O)[C@H](CCCCN)NC(=O)[C@H](CC(C)C)NC(=O)[C@H]([C@@H](C)O)NC(=O)[C@H](CCCCN)NC(=O)[C@H](Cc2ccc(O)cc2)NC(=O)[C@H]([C@@H](C)CC)NC(=O)[C@H](Cc2ccccc2)NC(=O)CNC(=O)[C@H](Cc2c[nH]c3ccccc23)NC(=O)c2ccc(-c3nc(C(=O)OC)cs3)nc2-c2csc(n2)C(=C)NC(=O)CNC1=O [TP1] (WGFIYKTLK[Dha][Dha]G; linker N-C via X1)
- binding to TNIK in the presence of ATP (TNIK [3]): bonded to TNIK in the presence of the saturated concentration of ATP

Structure (SMILES): C=C1NC(=O)/C(=C/C)NC(=O)[C@H](Cc2c[nH]c3ccccc23)NC(=O)[C@H](Cc2c[nH]cn2)NC(=O)[C@H](Cc2c[nH]c3ccccc23)NC(=O)[C@H]([C@@H](C)O)NC(=O)[C@H]([C@@H](C)CC)NC(=O)[C@H](Cc2ccccc2)NC(=O)[C@H](CCC(N)=O)NC(=O)[C@H](CCCNC(=N)N)NC(=O)[C@H](CCCCN)NC(=O)[C@H](CCCC)NC(=O)[C@H](CO)NC(=O)[C@H](Cc2c[nH]c3ccccc23)NC(=O)c2ccc(-c3nc(C(=O)NCCC(=O)NCCOCCOCCCCCCCl)cs3)nc2-c2csc1n2 [IR15-ct] (WS[Nle]KRQFITWHW[Dhb]; linker N-C via X2)
- inhibition of NFkB reporter gene activity, in words [5]: significant inhibition

- half-life (τ1/2) in human serum [4]: 14 h
- stability in human serum, in words [4]: good stability
Structure (SMILES): C=C1NC(=O)CNC(=O)[C@H](CC(N)=O)NC(=O)[C@H](CC(C)C)NC(=O)CNC(=O)[C@H](CCCCN)NC(=O)[C@H](C)NC(=O)[C@H]([C@@H](C)CC)NC(=O)[C@H](CO)NC(=O)[C@H](Cc2c[nH]c3ccccc23)NC(=O)[C@H](C)NC(=O)[C@H](Cc2c[nH]c3ccccc23)NC(=O)c2ccc(-c3nc(C(=O)OC)cs3)nc2-c2csc1n2 [TP8] (WAWSIAKGLNG; linker N-C via X1)
- binding to TNIK in the presence of ATP (TNIK [3]): bonded to TNIK in the presence of the saturated concentration of ATP
